Laboratory results as given in US4150137A, “Pyridylalkyl esters of 2-(p-isobutylphenyl)acetic acid and propionic acids and use” (Hisamitsu Pharmaceutical Co. Inc., priority 1975, dated 1979).

How the values were obtained:
male mice of dd-strain = format: in vivo; details: death of animals 72 hours following administration
Protocol: Each test compound suspended in 0.5% tragacanth-saline was administered intraperitoneally or orally to male mice of dd-strain(body weight 16-24 g). The lethal dose was estimated from the death of animals 72 hours following administration.

carrageenin edema = test: Anti-inflammatory activity for oral route (carrageenin edema, hind paw); format: in vivo, rat (Wistar-strain); details: for anti-inflammatory effect, oral, 10 mg/kg (relative inhibition, ibuprofen = 1.0): 10 mg/kg oral; for anti-inflammatory effect, oral, 10 mg/kg (relative inhibition, ibuprofen = 1.0) / anti-inflammatory effect, oral, 50 mg/kg (relative inhibition, ibuprofen = 1.0): percent inhibition divided by that of ibuprofen, carrageenin edema after 3 hours; for anti-inflammatory effect, oral, 50 mg/kg (relative inhibition, ibuprofen = 1.0): 50 mg/kg oral; for mean percent inhibition (carrageenin edema): oral
Protocol: After 30 minutes 0.5-1.0% carrageenin suspended in the water for injection was injected subcutaneously to a hind paw. After 3 hours the carrageenin edema was measured by volume, and the percent inhibition was determined with respect to the results for the control animals.

[1] = test system: carrageenin-induced leakage of the pigment, dorsal skin; test: Anti-inflammatory activity for topical route (carrageenin, leakage of pigment in dorsal skin); format: in vivo, rat (Wistar-strain); details: for anti-inflammatory effect, topical (relative inhibition, ibuprofen = 1.0): 1% in polyethylene glycol 300, percent inhibition divided by that of ibuprofen
Protocol: The dorsal skin of male rats of Wistar-strain(body weight: about 100 g) were depilated. Carrageenin suspension was injected intra-dermally at a dose of 250 γ/0.05 ml/site. […] Immediately after injection, the filter paper containing 125.2±18.0 mg of the polyethylene glycol was applied on the injected site. After 3 hours, 1% pontamine sky blue solution was injected intravenously at a dose of 0.5 ml/kg. After further 3 hours, the animals were sacrificed and their dorsal skin were removed to measure the area of leakage of the pigment. The percent inhibition was determined with respect to the results for the control animals.

writhing syndrome = test: Analgetic activity (acetic acid writhing syndrome); format: in vivo, mouse (dd-strain); details: Mus musculus, 1 h; oral, mice, 0.6% acetic acid i.p. one hour later; Litchfield-Wilcoxon; read-out: analgetic effect ED50 (95% C.L.)
Protocol: Each test compound suspended in 0.5% tragacanth-saline was orally administered to dd-strain mice(body weight: 18-20 g). After one hour 0.6% acetic acid solution was injected intraperitoneally in a volume of 0.1 ml/10 g.

Compound	acute toxicity, oral (lethal dose) (male mice of dd-strain) [mg/kg]	anti-inflammatory effect, oral, 10 mg/kg (relative inhibition, ibuprofen = 1.0) (carrageenin edema)	anti-inflammatory effect, oral, 50 mg/kg (relative inhibition, ibuprofen = 1.0) (carrageenin edema)	anti-inflammatory effect, topical (relative inhibition, ibuprofen = 1.0) [1]	ED50 (writhing syndrome) [mg/kg]	mean percent inhibition (carrageenin edema) (carrageenin edema; 10 mg/kg) [%]	mean percent inhibition (carrageenin edema) (carrageenin edema; 50 mg/kg) [%]	mean percent inhibition (topical route) ([1]; 1% in polyethylene glycol 300) [%]
CC(C)Cc1ccc(C(C)C(=O)OCC2CC2)cc1 (centres unmarked)	2000	0.8	1.6	3.7	103	–	–	–
CC(C)Cc1ccc(C(C)C(=O)OCc2ccccc2)cc1 (centres unmarked)	> 2000	0.7	0.9	3.1	118	–	–	–
CC(C)Cc1ccc(C(C)C(=O)OCc2ccccc2Cl)cc1 (centres unmarked)	> 2000	0.5	1.0	2.5	51.4	–	–	–
CC(C)Cc1ccc(C(C)C(=O)OCc2ccc(Cl)cc2)cc1 (centres unmarked)	> 2000	0.5	1.0	2.8	486	–	–	–
CC(C)Cc1ccc(C(C)C(=O)OCc2ccccc2F)cc1 (centres unmarked)	–	1.6	1.7	2.9	202	–	–	–
CC(C)Cc1ccc(C(C)C(=O)OCc2cccc(F)c2)cc1 (centres unmarked)	–	0.8	1.7	0.9	634	–	–	–
CC(C)Cc1ccc(C(C)C(=O)OCc2ccc(F)cc2)cc1 (centres unmarked)	–	1.1	1.2	–	–	–	–	–
Cc1ccc(COC(=O)C(C)c2ccc(CC(C)C)cc2)cc1 (centres unmarked)	–	1.7	1.5	1.9	230	–	–	–
COc1ccc(COC(=O)C(C)c2ccc(CC(C)C)cc2)cc1 (centres unmarked)	–	0.8	1.4	2.3	220	–	–	–
CC(C)Cc1ccc(C(C)C(=O)OCc2c(Cl)cccc2Cl)cc1 (centres unmarked)	> 2000	0.6	1.0	2.1	79.6	–	–	–
CC(C)Cc1ccc(C(C)C(=O)OCCN(C)C)cc1 (centres unmarked)	1000 to 2000	0.8	1.2	2.0	53.7	–	–	–
CCN(CC)CCOC(=O)C(C)c1ccc(CC(C)C)cc1 (centres unmarked)	500 to 1000	1.2	0.9	3.0	318	–	–	–
CC(C)Cc1ccc(C(C)C(=O)OCCCN(C)C)cc1 (centres unmarked)	500 to 1000	0.7	1.1	2.2	29.9	–	–	–
CC(C)Cc1ccc(C(C)C(=O)OCCN2CCOCC2)cc1 (centres unmarked)	1000 to 2000	0.7	0.9	1.6	154	–	–	–
CC(C)Cc1ccc(C(C)C(=O)OCCN2CCN(C)CC2)cc1 (centres unmarked)	1000 to 2000	1.0	1.1	2.5	31.6	–	–	–
CC(C)Cc1ccc(C(C)C(=O)OCc2ccccn2)cc1 (centres unmarked)	1000 to 2000	0.7	1.8	4.0	67.8	–	–	–
CC(C)Cc1ccc(C(C)C(=O)OCc2cccnc2)cc1 (centres unmarked)	1000 to 2000	1.0	1.4	1.7	31.2	–	–	–
CC(C)Cc1ccc(C(C)C(=O)OCc2ccncc2)cc1 (centres unmarked)	> 2000	1.0	1.2	2.7	87.1	–	–	–
CC(C)Cc1ccc(C(C)C(=O)OCc2cccnc2Cl)cc1 (centres unmarked)	> 2000	0.8	2.5	1.8	762	–	–	–
CC(C)Cc1ccc(C(C)C(=O)OCC2CCCO2)cc1 (centres unmarked)	1000 to 2000	0.6	0.9	3.1	91.6	–	–	–
COC(=O)C(C)c1ccc(CC(C)C)cc1 (centres unmarked) [Compound 1]	> 2000	0.8	1.4	3.5	109	–	–	–
CCCOC(=O)C(C)c1ccc(CC(C)C)cc1 (centres unmarked) [Compound 2, 2-(4-isobutylphenyl)propionic acid-n-propyl ester]	> 2000	0.7	1.1	3.2	192	–	–	–
CCCCCCOC(=O)C(C)c1ccc(CC(C)C)cc1 (centres unmarked) [Compound 6]	> 2000	–	1.2	3.5	215	–	–	–
CC(C)Cc1ccc(C(C)C(=O)OCC(F)(F)F)cc1 (centres unmarked) [Compound 9, 2-(p-isobutylphenyl)propionic acid-2,2,2-trifluoroethyl ester]	1000 to 2000	0.8	1.3	3.6	135	–	–	–
CC(C)Cc1ccc(C(C)C(=O)OCCO)cc1 (centres unmarked) [Compound 10]	> 2000	0.5	1.0	1.9	155	–	–	–
CC(C)Cc1ccc(C(C)C(=O)OCC(O)CO)cc1 (centres unmarked) [Compound 11]	1000 to 2000	1.1	0.9	–	143	–	–	–
COCOC(=O)C(C)c1ccc(CC(C)C)cc1 (centres unmarked) [Compound 12]	500 to 1000	1.0	1.2	2.5	174	–	–	–
CCOCOC(=O)C(C)c1ccc(CC(C)C)cc1 (centres unmarked) [Compound 13]	> 2000	1.3	1.0	2.8	155	–	–	–
CC(=O)OCOC(=O)C(C)c1ccc(CC(C)C)cc1 (centres unmarked) [Compound 17]	–	0.9	0.9	–	–	–	–	–
CC(C)Cc1ccc(C(C)C(=O)O)cc1 (centres unmarked) [ibuprofen, 2-(p-isobutylphenyl)propionic acid, reference compound]	–	–	–	–	45.8	33.5	37.4	23.8
